The values that follow are results of earlier work, collected in patent publication US20190314394A1, “IMMUNE-POTENTIATING DRUG NANOCARRIERS AND METHODS OF PRODUCTION AND USE THEREOF” (priority 2013, published 2019).

This series deals with HLA-DR molecules. The note with it: 15 out of 16 of the most prevalent HLA-DR molecules; read-out: IC50 (high or intermediate affinity binding).

Turning to “aKXVAAWTLKAAa (SEQ ID NO: 5) (AKAVAAWTLKAAA; D-alanine termini, cyclohexylalanine; MOD_RES (1)..(1) D-Alanine; MOD_RES (3)..(3) Cyclohexylalanine; MOD_RES (13)..(13) D-Alanine) [PADRE peptide variant; a=D-alanine, X=cyclohexylalanine]”, the IC50 is < 1000 nM.

For orientation: IC50 means the midpoint of a concentration-inhibition curve.
